Key:
CLN3^Δex7/8 neurons = experiment: Mitochondrial autophagy level (mtDNA/nDNA after CCCP and Baf-A1); assay type: cell-based, human; conditions: CCCP-induced mitochondrial damage
Method: The medium in the cell culture plate was aspirated and the cells were digested after washing once with dPBS. After stopping the digestion with cell medium, the supernatant was removed by centrifugation and the cells were resuspended with 200 μL dPBS. DNeasy®) Blood & Tissue Kit was used to extract DNA from cells. Then, referring to the qRT-PCR system and reaction procedure in Tables 2 and 3, the qRT-PCR reaction was performed using the extracted DNA instead of the cDNA. Data analysis was performed in Prism 7 software using the 2^ΔΔCt process with genomic gene b2M as internal reference for relative quantification of the number of mitochondrial sequences MinArc. Primers for determining intracellular mitochondria number were as follows:
Damaged mitochondria within a cell can be eliminated through an autophagic process named mitochondrial autophagy. Functional defects in autophagy affect the elimination of damaged mitochondria, which in turn disrupts mitochondrial homeostasis in neurons. After inducing mitochondrial damage in wild-type and CLN3^Δex7/8 neurons using the mitochondrial uncoupler CCCP, and then inhibiting the elimination of damaged mitochondria by Baf-A1, the increases of intracellular mitochondrial number (mtDNA/nDNA) after Baf-A1 treatment can represent the intracellular mitochondrial autophagy level.

mouse neural stem cells = experiment: qRT-PCR of autophagy and lysosome-related genes in mouse neural stem cells; assay type: cell-based; conditions: 6 hours
Method: The cells in the cell-culture dish were collected, extracted using AxyPrep Total RNA Mini Prep Kit or Qiagen AxyPrep Total RNA Mini Prep Kit, and the extracted RNA concentration is measured using Nanodrop; the extracted mRNA was reverse transcribed into cDNA by Transgen's EasyScript® One-Step gDNA Removal and cDNA Synthesis SuperMix and the primers used for reverse transcription were Oligo dT primers; the completion of reverse transcription followed by qRT-PCR reaction through PerfectStart™ Green qPCR SuperMix to detect the expression of the target gene; the qRT-PCR reaction was performed on the Bio-Rad CFX96 Real-Time PCR system; see Table 2 and Table 3 for the 20 μL qRT-PCR reaction system and reaction procedures; data analysis was performed in Prism 7 software using the 2^−ΔΔCt process with GAPDH as internal reference for relative quantification of the expression of the target gene.
After treating primary (a) neural stem cells and (b) neurons of Cln3 KO) mice for 6 hours, the mRNA was extracted from the cells, reverse-transcribed into cDNA, and transcription levels of autophagy- and lysosome-related genes were detected using qRT-PCR (n=3).
It was speculated from this that the known target FXR of Compound G was expressed at low or no levels in neural lineage cells. […]

[1] = system: CLN3^Δex7/8 human neural stem cells; experiment: Tandem LC3 autophagic flux in human neural stem cells; assay type: cell-based
Description: After lysosomal function defects were detected in CLN3^Δex7/8 neural stem cells and neurons, autophagic flux in the cells was further examined. Equal amounts of lentivirus packaged with tandem LC3 plasmid were used to infect wild-type and CLN3^Δex7/8 cells to label intracellular autophagosomes.
Autophagosomes in neural stem cells were labeled using tandem LC3, and the number of autophagosomes with green fluorescence and those with red fluorescence only were observed by high-intensity laser confocal microscope.

Compound: C/C=C1\C(=O)C[C@H]2[C@@H]3CCC4=CC(=O)CC[C@]4(C)[C@H]3CC[C@]12C [Compound G, (Z)-guggulsterone]
- mitochondrial autophagy (increase of mitochondrial number mtDNA/nDNA after Baf-A1) (CLN3^Δex7/8 neurons): rescue mitochondrial autophagy
- expression level of the autophagy and lysosome-related genes (mouse neural stem cells): no significant change
- number of red fluorescence single-positive autophagosomes [1]: increased the number of red fluorescence single-positive autophagosomes

— patent publication US20250152605A1, “METHOD AND DRUG FOR TREATING NEURONAL CEROID LIPOFUSCINOSIS” (priority 2021, published 2025)
